Experimental findings from PubChem BioAssay (NCI) are described below.

Values joined by “and” are separate entries in the source; they are usually repeats but may differ in a detail not shown here. Equal values may be shown once.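 How tested: cells in 96-well plates exposed to compound for 48 hours at five concentrations. GI50 is the concentration that inhibits growth by half. The concentration for full growth arrest is given as TGI.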

Test systems include SNB-75 CNS; A549 NSCLC; MCF7 breast; HCT-15 colon; SN12C renal; SF-268 CNS; BT-549 breast; IGROV1 ovarian; SR leukemia; HT29 colon.
Common to all, as to test: inhibition of tumour cell growth, NCI panel, 48 h

Turning to `Cc1cc(Nc2cc(CN3CCOCC3)c3nc(C)c(Cc4ccc(Cl)cc4F)n3n2)n[nH]1`, the GI50 with SNB-75 CNS was 433 nM; with A549 NSCLC, 919 nM; with MCF7 breast it was 644 nM; with HCT-15 colon, 2620 nM; in the test on SN12C renal it was 1140 nM; in the test on SF-268 CNS, 1030 nM. Besides, the GI50 in the test on BT-549 breast was 1730 nM; in the test with IGROV1 ovarian, 2150 nM; with SR leukemia it was 282 nM; in the test on HT29 colon, 1440 nM. For the same compound, the TGI in the test with SNB-75 CNS came out at 2400 nM; with A549 NSCLC, 6160 nM; with MCF7 breast, 12900 nM; in the test with HCT-15 colon, 14900 nM; in the test on SN12C renal it was 15900 nM; in the test on SF-268 CNS it was 4650 nM. In addition, the TGI with BT-549 breast is 8920 nM; in the test on IGROV1 ovarian, 5570 nM; with SR leukemia, 1530 nM; with HT29 colon it was 12300 nM.

As to `S=c1nc[nH]c2nc[nH]c12`, the TGI in the test with SNB-75 CNS is > 100000 nM and 402000 nM and > 621000 nM; in the test on A549 NSCLC, > 100000 nM and 714000 nM and > 750000 nM; with MCF7 breast it was > 100000 nM and 512000 nM and > 413000 nM; with HCT-15 colon, > 100000 nM and 629000 nM and > 750000 nM; in the test on SN12C renal, > 100000 nM and 680000 nM and > 750000 nM; in the test on SF-268 CNS, > 100000 nM and 681000 nM and > 750000 nM. Moreover, the TGI in the test with BT-549 breast is above 750000 nM; with IGROV1 ovarian it was > 100000 nM and 695000 nM and > 750000 nM; in the test on SR leukemia, 72700 nM and 239000 nM; in the test on HT29 colon it was above 750000 nM. Besides, the GI50 in the test on A549 NSCLC is 65900 nM; in the test with HCT-15 colon, 3400 nM and 18200 nM; in the test on SF-268 CNS it was 12300 nM; with IGROV1 ovarian, 23300 nM; in the test on SR leukemia, 430 nM; in the test on HT29 colon, 22500 nM.

For the compound `COc1ccc2c(O)c(/C=C3\N=Nc4ncccc43)oc2c1C[C@H]1CCNC[C@H]1F`, the GI50 is 185 nM with SNB-75 CNS; 1740 nM with A549 NSCLC; 207 nM in the test with MCF7 breast; 507 nM with HCT-15 colon; 442 nM in the test with SN12C renal; 296 nM in the test on SF-268 CNS. Besides, the GI50 was 211 nM in the test with BT-549 breast, 353 nM in the test on IGROV1 ovarian, 30 nM in the test with SR leukemia and 411 nM in the test with HT29 colon. Besides, the TGI in the test on SNB-75 CNS stood at 1540 nM; in the test with A549 NSCLC it was 10800 nM; in the test with MCF7 breast, 9180 nM; in the test on HCT-15 colon, 12200 nM; in the test with SN12C renal, 10600 nM; in the test on SF-268 CNS, 10400 nM. In addition, the TGI in the test with BT-549 breast is 2300 nM; in the test on IGROV1 ovarian, 5060 nM; in the test with SR leukemia it was 3180 nM; in the test on HT29 colon, 6930 nM.

For the compound `COc1cccc2c1nc1cccc(OC)c1[n+]2[O-]`, the GI50 in the test with SNB-75 CNS was 2490 nM; in the test on A549 NSCLC, 7800 nM; in the test on MCF7 breast, 941 nM; in the test with HCT-15 colon, 2930 nM; with SN12C renal it was 4150 nM; in the test with SF-268 CNS, 2650 nM. The GI50 is 5940 nM in the test on BT-549 breast, 2350 nM with IGROV1 ovarian, 568 nM in the test with SR leukemia and 1550 nM in the test on HT29 colon. The TGI with SNB-75 CNS was found to be 14500 nM; in the test with A549 NSCLC it was 38900 nM; in the test on MCF7 breast it was 12900 nM; in the test on HCT-15 colon, 12700 nM; in the test with SN12C renal, 16300 nM; in the test with SF-268 CNS it was 13800 nM. Further, the TGI is 28200 nM in the test on BT-549 breast, 15900 nM in the test on IGROV1 ovarian, 4170 nM in the test on SR leukemia and 13900 nM in the test on HT29 colon.

Regarding `O=C1c2ccc3c4c(ccc(c24)C(=O)N1CCCNCc1ccccc1)C(=O)N(CCCNCc1ccccc1)C3=O`, the GI50 in the test with SNB-75 CNS was 147 nM; in the test on A549 NSCLC, 131 nM; in the test on MCF7 breast, 80.8 nM; in the test on HCT-15 colon it was 116 nM; with SN12C renal it was 145 nM; in the test with SF-268 CNS, 173 nM. Further, the GI50 was 451 nM in the test on BT-549 breast, 110 nM in the test on IGROV1 ovarian, 75.6 nM in the test on SR leukemia and 42.1 nM in the test with HT29 colon. For the same compound, the TGI was found to be 291 nM in the test on SNB-75 CNS; 365 nM in the test with A549 NSCLC; 330 nM with MCF7 breast; 316 nM in the test on HCT-15 colon; 308 nM in the test with SN12C renal; 531 nM with SF-268 CNS. For the same compound, the TGI in the test with BT-549 breast came to 889 nM; with IGROV1 ovarian, 405 nM; in the test with SR leukemia it was 505 nM; with HT29 colon, 231 nM.

`CN(C)CCNC(=O)c1cccc2cc([N+](=O)[O-])ccc12`: the GI50 with SNB-75 CNS is 1370 nM and 380 nM; in the test with A549 NSCLC, 183 nM; with HCT-15 colon it was 1710 nM and 196 nM; with SN12C renal, 1690 nM and 178 nM; with SF-268 CNS it was 1870 nM and 220 nM; in the test with IGROV1 ovarian, 1790 nM and 245 nM. In the test on HT29 colon, the GI50 is 681 nM and 189 nM. Also, the TGI is 5770 nM and 1080 nM in the test with SNB-75 CNS; 2220 nM in the test on A549 NSCLC; 15300 nM in the test on MCF7 breast; 11500 nM and 1380 nM with HCT-15 colon; 7570 nM and 2240 nM in the test on SN12C renal; 10900 nM and 1160 nM with SF-268 CNS. In addition, the TGI with BT-549 breast is 13800 nM; with IGROV1 ovarian it was 14200 nM and 2320 nM; with SR leukemia, 132 nM; in the test with HT29 colon it was 4960 nM and 1070 nM.

Consider `COc1cc(-c2nc3ccccc3[nH]2)ccc1OCC(=O)N=Nc1c(O)[nH]c2ccc(Cl)cc12`, for which the GI50 with SNB-75 CNS is 1190 nM; in the test on A549 NSCLC, 3720 nM; in the test on MCF7 breast, 570 nM; with HCT-15 colon, 4900 nM; in the test with SN12C renal it was 1610 nM; in the test on SF-268 CNS, 1660 nM. For the same compound, the GI50 with BT-549 breast was 1980 nM; in the test with IGROV1 ovarian it was 1520 nM; with SR leukemia, 292 nM; in the test on HT29 colon, 1620 nM. Further, the TGI was 2640 nM in the test on SNB-75 CNS; above 100000 nM in the test with A549 NSCLC; 2390 nM in the test on MCF7 breast; above 100000 nM with HCT-15 colon; 3060 nM with SN12C renal; 3340 nM in the test on SF-268 CNS. The TGI with BT-549 breast is 4030 nM; in the test with IGROV1 ovarian, 3050 nM; with SR leukemia, 1050 nM; in the test with HT29 colon, 3480 nM.

As to `c1ccc(CCCNc2nnnc3ccccc23)cc1`, the TGI with SNB-75 CNS, with A549 NSCLC, in the test on MCF7 breast, with HCT-15 colon, in the test with SN12C renal and with SF-268 CNS was above 100000 nM each time. The TGI in the test with BT-549 breast, in the test with IGROV1 ovarian, in the test on SR leukemia and with HT29 colon was above 100000 nM throughout.
